Measurements: ChEMBL document CHEMBL1141124 (J Med Chem, 2005)
Starred links: 1 amine or outer side, 2 acyl side, 3 side chain; linkers in the order of their positions; H or OH if unused. Non-standard residues stand in square brackets, D forms with d. Residues, ends and D or L forms follow the SMILES beside them. X2 = O=C(c1cc(CN[*:1])cc(Cc2ccc(O)cc2)c1)[*:2]; X1 = O=C(c1cc(Cc2ccc(O)cc2)cc(N[*:1])c1)[*:2]; Phe(4-NH2) = Nc1ccc(C[C@H](N)C(=O)O)cc1

molecular target: T1, Type-1 angiotensin II receptor B (Rattus norvegicus, UniProt P29089); assay: Binding affinity for angiotensin II receptor, type 1 in rat liver membrane using [125I]-Ang II as radioligand, in pH 7.4 Tris-HCl buffer for 2 hr at 25 degree C; assay type: cell membranes
T1 sequence (P29089 whole entry): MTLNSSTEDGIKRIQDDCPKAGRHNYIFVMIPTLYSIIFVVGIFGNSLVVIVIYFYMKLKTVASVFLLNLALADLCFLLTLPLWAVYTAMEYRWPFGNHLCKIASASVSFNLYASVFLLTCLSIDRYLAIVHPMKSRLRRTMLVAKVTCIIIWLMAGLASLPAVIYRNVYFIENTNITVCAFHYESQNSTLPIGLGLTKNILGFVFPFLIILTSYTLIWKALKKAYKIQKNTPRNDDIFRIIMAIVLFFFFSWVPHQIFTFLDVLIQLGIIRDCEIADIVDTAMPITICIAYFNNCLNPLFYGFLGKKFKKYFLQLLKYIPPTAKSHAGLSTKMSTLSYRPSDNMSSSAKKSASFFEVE

SMILES	Ki
CC[C@H](C)[C@H](NC(=O)[C@H](Cc1ccc(O)cc1)NC(=O)[C@@H](NC(=O)[C@H](CCCNC(=N)N)NC(=O)CNC)C(C)C)C(=O)N[C@@H](Cc1cnc[nH]1)C(=O)N1CCC[C@H]1C(=O)N[C@@H](Cc1ccccc1)C(=O)O	0.00016 µM
CC[C@H](C)[C@H](NC(=O)[C@H](Cc1ccc(O)cc1)NC(=O)[C@@H](NC(=O)[C@H](CCCN=C(N)N)NC(=O)[C@@H](N)CC(=O)O)C(C)C)C(=O)N[C@@H](Cc1ccc(N)cc1)C(=O)N1CCC[C@H]1C(=O)N[C@@H](Cc1ccccc1)C(=O)O (H-DRVYI[Phe(4-NH2)]PF-OH)	> 10 µM
CC(C)[C@H](NC(=O)[C@H](CCCN=C(N)N)NC(=O)[C@@H](N)CC(=O)O)C(=O)Nc1cc(Cc2ccc(O)cc2)cc(C(=O)N[C@@H](Cc2c[nH]cn2)C(=O)N2CCC[C@H]2C(=O)N[C@@H](Cc2ccccc2)C(=O)O)c1 (H-DRV[X1]HPF-OH)	0.0303 µM
CC(C)[C@H](NC(=O)[C@H](CCCN=C(N)N)NC(=O)[C@@H](N)CC(=O)O)C(=O)NCc1cc(Cc2ccc(O)cc2)cc(C(=O)N[C@@H](Cc2c[nH]cn2)C(=O)N2CCC[C@H]2C(=O)N[C@@H](Cc2ccccc2)C(=O)O)c1 (H-DRV[X2]HPF-OH)	> 10 µM
N=C(N)NCCC[C@H](NC(=O)[C@@H](N)CC(=O)O)C(=O)Nc1cc(Cc2ccc(O)cc2)cc(C(=O)N[C@@H](Cc2cnc[nH]2)C(=O)N2CCC[C@H]2C(=O)N[C@@H](Cc2ccccc2)C(=O)O)c1 (H-DR[X1]HPF-OH)	> 10 µM
NC(N)=NCCC[C@H](NC(=O)[C@@H](N)CC(=O)O)C(=O)NCc1cc(Cc2ccc(O)cc2)cc(C(=O)N[C@@H](Cc2c[nH]cn2)C(=O)N2CCC[C@H]2C(=O)N[C@@H](Cc2ccccc2)C(=O)O)c1 (H-DR[X2]HPF-OH)	> 10 µM
CC[C@H](C)[C@H](NC(=O)c1cc(CNC(=O)[C@H](CCCN=C(N)N)NC(=O)[C@@H](N)CC(=O)O)cc(Cc2ccc(O)cc2)c1)C(=O)N[C@@H](Cc1c[nH]cn1)C(=O)N1CCC[C@H]1C(=O)N[C@@H](Cc1ccccc1)C(=O)O (H-DR[X2]IHPF-OH)	> 10 µM
